Results as given in patent US20180258404A1, “METHODS OF GENERATING NEPHRONS FROM HUMAN PLURIPOTENT STEM CELLS” (THE BRIGHAM AND WOMEN'S HOSPITAL, INC., priority 2015, published 2018).
Entries after “also recorded” stand apart in the source; their conditions may differ.

Assays:
Format in all cases: cell-based, human
[1] = tested on: NPCs in 3D culture; assay: Growth factor and small molecule screening in 3D culture (LTL+ tubules); details: added in 3D culture from day 10
Description: FIG. 10. Spontaneous differentiation of SIX2+ cells into nephrons and growth factor screening in 3D culture. (a) Staining with PAX8 and LHX1 in hESCs on day 10 of the differentiation. hESCs were differentiated with CHIR 8 µM for 4 days, activn 10 ng/ml for 3 days, and FGF9 10 ng/ml for 3 days. […] Scale bar: 50 μm. (b) Brighfield imaging for hESCs on day 10 and 21 of the differentiation. FGF9 was withdrawn on day 10, and cells were cultured in the basic medium by day 21. Scale bars: 50 μm. (c) Brightfield and immunocytochemistry for LTL and NPHS1 in hESCs on day 28 of the differentiation. Scale bar: 50 μm. (d) The protocol for growth factor screening. Cells were replated to 3D culture on day 10, and the listed growth factors and small molecules were tested. (e) The number of LTL+ tubules in the organoids. […] (f) Brightfield imaging of 3D co-culture with an ureteric bud cell sphere. Scale bar: 100 μm. (g) Whole-mountstaining for LTL in the organoids on day 16. Scale bar: 100 μm. (h) Immunohistochemistry of the organoids on day 16. Scale bars: 50 μm. LTL: lotus tetragonolobus lectin. NPHS1: Nephrin.
To test whether the formation of epithelial structures could be facilitated by 3D culture conditions, on day 10, at the time of FGF9 withdrawal, the Inventors replated NPCs in ultra-low-attachment, round-bottom 96-well plates and cultured them for 1 week. NPCs formed 3D spherical aggregates, one per 96-well, in suspension culture.

[2] = tested on: kidney organoids; assay: Aristolochic acid toxicity and nephroprotection model in kidney organoids; details: for PGC-1a expression (real-time quantitative PCR): AA alone or AA with cilostamide
Text: FIG. 34. […] Representative immunohistochemistry of aristolochic acid (AA) and tenofovir (TFV) treatments. Day 32 Kg-derived organoids. Al/AA treatments for 24H, while all TFV treatments for 48 H. Scale bars, 50 gm. Quantification determined as a percentage of DAP/+ cells. n=3, total DAP/+>1000 for each treatment. (*) indicates p-value<0.05.
FIG. 35. OAT1 inhibition by probenecid protects proximal tubules against AA toxicity. Representative immunohistochemistry of probenecid treatments with AA 2.5 gg/mL. Day 38 Kg-derived organoids. All treatments for 48 H. Scale bars, 50 um. Quantification determined as a percentage of DAPI+ cells. n=3, total DAPI+>1000 for each treatment. (*) indicates p-value<0.05.
FIG. 36. […] Representative immunohistochemistry of cilostamide and sildenafi/treatments with AA 2.5 gg/mL. Day 38 H9-derived organoids. All treatments for 48 H. Scale bars, 50 gm. Quantification determined as a percentage of DAPI+ cells. n=3, total DAPI+>1000 for each treatment. (*) indicates p-value<0.05.
FIG. 37. Real-time quantitative PCR mRNA was extracted from organoid samples and confirmed with Nanodrop. cDNA library Was generated by reverse transcription. AQP-I is prominently expressed on proximal tubules. PGC1-a is the master regulator of mitochondrial biogenesis.

[3] = tested on: H9 hESCs; assay: Differentiation of hESCs into posterior intermediate mesoderm; details: for WT1 expression on day 7: added to CHIR in the first step, hESCs
Description: (§1) hPSCs grown on Geltrex were washed once with PBS (Life Technologies, #10010-049) and dissociated into single cells with Accutase ([…] Technologies, #07920). Cells were then plated at a density of 2-2.4×10^4 (H9) or 1-1.4×10^4 (HDF, 2C) cells/cm^2 onto 24-well tissue culture plates (TPP, #92024) coated with 1% Geltrex in ReproFF2 supplemented with the ROCK inhibitor Y27632 (10 μM) (TOCRIS, #1254) and FGF2 (10 ng/ml). After 72 hours, cells (50% confluent) were briefly washed in PBS and then cultured in basic differentiation medium consisting of Advanced RPMI 1640 (Life Technologies, #12633-020) and 1X L-GlutaMAX (Life Technologies, #35050-061) supplemented with CHIR99021 (8-10 μM) (TOCRIS, #4423) for 4 days to induce late primitive streak cells Noggin (5 ng/ml) was also used for hiPSC differentiation in addition to CHIR (10 μM). To induce posterior intermediate mesoderm, cells were then cultured in Advanced RPMI+1X L-GlutaMAX+activin (10 ng/mL) (R&D, #338-AC-050) for 3 days. For induction of nephron progenitor cells, the media was then changed to Advanced RPMI+1X L-GlutaMAX+FGF9 (10 ng/ml) (R&D, #273-F9-025/CF) for 7 days. CHIR (3 μM) was added to the media from day 9 to 11 of differentiation to induce renal vesicles. On day 14, cells were switched to the basic differentiation medium and cultured for an additional 7 to 14 days (total of 21 to 28 days). The medium was replaced every 2 or 3 days. A variety of growth factors and small molecules were tested for differentiation.
PAX2 and LHX1 were not expressed (FIG. 1f), confirming that activin treatment of late primitive streak cells produced posterior and not anterior IM cells.
As the posterior primitive streak is induced by a BMP4 signal gradient, the Inventors hypothesized that CHIR treatment of HDF-α hiPSCs might induce endogenous BMP4 production that promotes differentiation into the posterior primitive streak and subsequently lateral plate mesoderm. […] Optimizing the protocol for individual cell lines based on their endogenous BMP4 production maximized the efficiency of generating posterior IM.

[4] = tested on: HDF-α hiPSCs; assay: Differentiation of hiPSCs into posterior intermediate mesoderm
Description: as §1, with “The medium was replaced every 2 or 3 days. A variety of growth factors and small molecules were tested for differentiation.” left out

HGF: growth factor tested in 3D culture screening
number of LTL+ tubules in the organoids [1]: did not significantly increase the number of LTL+ tubules; also recorded: showed a tendency to increase LTL+ tubules

COc1cccc2c1cc([N+](=O)[O-])c1c(C(=O)O)cc3c(c12)OCO3 [AA, aristolochic acid]
PGC-1a expression (real-time quantitative PCR) [2]: downregulated
kidney damage biomarkers by immunohistochemistry ([2]; AA treatments for 24H, day 32 organoids): dose-dependent upregulation of kidney damage biomarkers

IGF-1: growth factor tested in 3D culture screening
number of LTL+ tubules in the organoids [1]: did not significantly increase the number of LTL+ tubules

CCCN(CCC)S(=O)(=O)c1ccc(C(=O)O)cc1 [Probenecid, probenecid]
nephroprotection against AA ([2]; Probenecid 10 LIM with AA 2.5 gg/mL, 48 H, day 38 organoids): provided strongest nephroprotection against AA
damage to organoids ([2]; probenecid alone, 48 H, day 38 organoids): causes no damage to organoids

JAG1: growth factor tested in 3D culture screening
number of LTL+ tubules in the organoids [1]: did not significantly increase the number of LTL+ tubules

O=C(Nc1cccc2cccnc12)c1ccc(N2C(=O)[C@@H]3[C@H](C2=O)[C@@H]2C=C[C@H]3C2)cc1 [IWR-1]
number of LTL+ tubules in the organoids [1]: did not significantly increase the number of LTL+ tubules

NC(=O)c1ccc(-c2nc(-c3ccc4c(c3)OCO4)c(-c3ccccn3)[nH]2)cc1 [SB431542]
number of LTL+ tubules in the organoids [1]: did not significantly increase the number of LTL+ tubules

CN(C(=O)CCCOc1ccc2[nH]c(=O)ccc2c1)C1CCCCC1 [cilostamide]
PGC-1a expression (real-time quantitative PCR) [2]: protected
nephroprotection against AA (real-time quantitative PCR, AQP-I) ([2]; cilostamide with AA): dose-dependent nephroprotection against AA, significant preservation of proximal tubules
mitochondrial biogenesis and protection ([2]; cilostamide with AA 2.5 gg/mL, 48 H, day 38 H9-derived organoids): increases mitochondrial biogenesis and protection in AA-toxicity model

B1: mouse Wnt9b: growth factor tested in 3D culture screening (protein, UniProt O35468 24-359, looked up)
Protein Wnt-9b: AAYFGLTGREVLTPFPGLGTAAAPAQAGAHLKQCDLLKLSRRQKQLCRREPGLAETLRDAAHLGLLECQFQFRQERWNCSLEGRTGLLQRGFKETAFLYAVSAAALTHALARACSAGRMERCTCDDSPGLESRQAWQWGVCGDNLKYSTKFLSNFLGPKRGSKDLRARADAHNTHVGIKAVKSGLRTTCKCHGVSGSCAVRTCWKQLSPFRETGQVLKLRYDTAVKVSSATNEALGRLELWAPAKPGGPAKGLAPRPGDLVYMEDSPSFCRPSKYSPGTAGRVCSRDSSCSSLCCGRGYDTQSRMVVFSCHCQVQWCCYVECQQCAQQELVYTCKR
number of LTL+ tubules in the organoids [1]: did not significantly increase the number of LTL+ tubules

B2: activin: growth factor used to induce posterior intermediate mesoderm (protein, UniProt P08476 311-426, looked up)
Inhibin beta A chain: GLECDGKVNICCKKQFFVSFKDIGWNDWIIAPSGYHANYCEGECPSHIAGTSGSSLSFHSTVINHYRMRGHSPFANLKSCCVPTKLRPMSMLYYDDGQNIIKKDIQNMIVEECGCS
modifications: Inhibin beta A chain
notes: growth factor used to induce posterior intermediate mesoderm
efficiency of induction of WT1+HOXD11+ cells ([3]; activin 10 ng/mL between days 4 and 7, after CHIR 8 μM for 4 days): ~90%
efficiency of generation of WT1+HOXD11+ posterior IM cells ([4]; activin after CHIR plus noggin 5 ng/mL in the first step): 80-90%

B3: noggin: a BMP4 signaling antagonist (protein, UniProt Q13253 28-232, looked up)
Noggin: QHYLHIRPAPSDNLPLVDLIEHPDPIFDPKEKDLNETLLRSLLGGHYDPGFMATSPPEDRPGGGGGAAGGAEDLAELDQLLRQRPSGAMPSEIKGLEFSEGLAQGKKQRLSKKLRRKLQMWLWSQTFCPVLYAWNDLGSRFWPRYVKVGSCFSKRSCSVPEGMVCKPSKSVHLTVLRWRCQRRGGQRCGWIPIQYPIISECKCSC
WT1 expression on day 7 [3]: significantly suppressed WT1 expression on day 7
T, TBX6 and FOXF1 expression on day 4 ([4]; noggin 5 ng/mL with CHIR in the first step of differentiation): expressed T and TBX6 but not FOXF1 on day 4

B4: WNT4: growth factor tested in 3D culture screening (protein, UniProt P56705 23-351, looked up)
Protein Wnt-4: SNWLYLAKLSSVGSISEEETCEKLKGLIQRQVQMCKRNLEVMDSVRRGAQLAIEECQYQFRNRRWNCSTLDSLPVFGKVVTQGTREAAFVYAISSAGVAFAVTRACSSGELEKCGCDRTVHGVSPQGFQWSGCSDNIAYGVAFSQSFVDVRERSKGASSSRALMNLHNNEAGRKAILTHMRVECKCHGVSGSCEVKTCWRAVPPFRQVGHALKEKFDGATEVEPRRVGSSRALVPRNAQFKPHTDEDLVYLEPSPDFCEQDMRSGVLGTRGRTCNKTSKAIDGCELLCCGRGFHTAQVELAERCSCKFHWCCFVKCRQCQRLVELHTCR
number of LTL+ tubules in the organoids [1]: did not significantly increase the number of LTL+ tubules

B5: BMP7: growth factor tested in 3D culture screening (protein, UniProt P18075 293-431, looked up)
Bone morphogenetic protein 7: STGSKQRSQNRSKTPKNQEALRMANVAENSSSDQRQACKKHELYVSFRDLGWQDWIIAPEGYAAYYCEGECAFPLNSYMNATNHAIVQTLVHFINPETVPKPCCAPTQLNAISVLYFDDSSNVILKKYRNMVVRACGCH
number of LTL+ tubules in the organoids [1]: did not significantly increase the number of LTL+ tubules

B6: BMP4: growth factor; posteriorizes the primitive streak (protein, UniProt P12644 293-408, looked up)
Bone morphogenetic protein 4: SPKHHSQRARKKNKNCRRHSLYVDFSDVGWNDWIVAPPGYQAFYCHGDCPFPLADHLNSTNHAIVQTLVNSVNSSIPKACCVPTELSAISMLYLDEYDKVVLKNYQEMVVEGCGCR
FOXF1 expression at day 4 ([3]; BMP4 1 ng/mL added to CHIR): resulted in FOXF1 expression at day 4
WT1 expression on day 7 [3]: suppression of WT1 expression on day 7
